Values of other authors in US20240358747A1, “SOME GEL FORMULATIONS THAT PROVIDE WOUND HEALING AND THE SYNTHESIS OF DYSPROSIUM ERBIUM BORATE TRIHYDRATE (Dy0.5Er0.5BO3.3H2O) COMPOUND USED IN THESE FORMULATIONS” (VERTRATECH KIMYA SANAYI VE TICARET LIMITED SIRKETI, priority 2021, published 2024).

Settings: topical application of 3% boric acid to wounds

In the case of `OB(O)O` [boric acid], the “length of stay in intensive care units” value is given as “reduces the length of stay in intensive care units three times”.
